Assay results reported in ChEMBL document CHEMBL1158777, “Petrosamine B, an inhibitor of the Helicobacter pylori enzyme aspartyl semialdehyde dehydrogenase from the Australian sponge Oceanapia sp” (J Nat Prod, 2005).

Molecular target: T1, Aspartate-semialdehyde dehydrogenase (Helicobacter pylori (strain ATCC 700392 / 26695) (Campylobacterpylori), UniProt O25801)
T1 sequence (O25801 whole entry): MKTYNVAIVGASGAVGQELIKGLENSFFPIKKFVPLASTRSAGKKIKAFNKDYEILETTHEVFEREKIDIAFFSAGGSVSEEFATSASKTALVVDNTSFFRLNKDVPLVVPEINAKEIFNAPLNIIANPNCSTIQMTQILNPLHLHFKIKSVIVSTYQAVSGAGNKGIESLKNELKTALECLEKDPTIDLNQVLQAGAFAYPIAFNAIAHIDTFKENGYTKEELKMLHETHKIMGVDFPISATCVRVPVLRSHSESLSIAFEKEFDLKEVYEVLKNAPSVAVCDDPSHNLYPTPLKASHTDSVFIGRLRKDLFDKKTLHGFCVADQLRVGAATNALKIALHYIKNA
Assay: Inhibition of Helicobacter pylori His-tagged ASD assessed as inhibition of phosphorylation of aspartate semialdehyde

Compound | IC50 [µM]
C[n+]1ccc2c(c1)c(O)c1c3c(c4cc(Br)ccc4nc32)C(=O)C[N+]1(C)C [PETROSAMINE B] | 306
N[C@@H](CSS(=O)(=O)O)C(=O)O | 0.18
